Data as given in ChEMBL document CHEMBL4308888, “Discovery of novel pyruvate dehydrogenase kinases inhibitors by screening of an in-house small molecule library for anti-lung cancer therapeutics” (Bioorg Med Chem Lett, 2019).
Active and inactive are the calls of the source. No cut-off for these calls is given here.

How the values were obtained:
[1] = biological target: T1, [Pyruvate dehydrogenase (acetyl-transferring)] kinase isozyme 1, mitochondrial (Homo sapiens, UniProt Q15118); assay: Inhibition of PDK1 (unknown origin) at 10 uM using PDH E1 as substrate measured after 30 mins by kinase-glo assay relative to control
T1 sequence (Q15118 whole entry): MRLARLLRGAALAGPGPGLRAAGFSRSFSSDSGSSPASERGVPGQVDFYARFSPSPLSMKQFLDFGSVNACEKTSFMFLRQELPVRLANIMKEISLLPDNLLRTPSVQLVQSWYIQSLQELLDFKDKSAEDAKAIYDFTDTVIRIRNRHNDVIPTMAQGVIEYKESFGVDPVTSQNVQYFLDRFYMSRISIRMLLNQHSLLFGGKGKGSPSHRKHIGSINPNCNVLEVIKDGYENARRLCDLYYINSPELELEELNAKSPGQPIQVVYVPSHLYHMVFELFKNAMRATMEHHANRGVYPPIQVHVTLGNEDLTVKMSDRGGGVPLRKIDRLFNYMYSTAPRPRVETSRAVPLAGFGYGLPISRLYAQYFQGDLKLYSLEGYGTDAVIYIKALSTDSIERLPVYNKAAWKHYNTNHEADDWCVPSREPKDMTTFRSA

[2] = biological target: T1, [Pyruvate dehydrogenase (acetyl-transferring)] kinase isozyme 1, mitochondrial; assay: Inhibition of PDK1 (unknown origin) using PDH E1 as substrate measured after 30 mins by kinase-glo assay
[3] = biological target: T1, [Pyruvate dehydrogenase (acetyl-transferring)] kinase isozyme 1, mitochondrial; assay: Potency index, ratio of DCA EC50 to test compound EC50 for inhibition of PDK1 (unknown origin)
[4] = biological target: T1, [Pyruvate dehydrogenase (acetyl-transferring)] kinase isozyme 1, mitochondrial; assay: Binding affinity to SUMO-fused/His-tagged PDK1 (unknown origin) expressed in Escherichia coli by isothermal calorimetric titration analysis
[5] = biological target: [Pyruvate dehydrogenase (acetyl-transferring)] kinase isozyme 2, mitochondrial (Homo sapiens, UniProt Q15119); assay: Binding affinity to SUMO-fused/His-tagged PDK2 (unknown origin) expressed in Escherichia coli by isothermal calorimetric titration analysis
[6] = biological target: [Pyruvate dehydrogenase (acetyl-transferring)] kinase isozyme 3, mitochondrial (Homo sapiens, UniProt Q15120); assay: Binding affinity to SUMO-fused/His-tagged PDK3 (unknown origin) expressed in Escherichia coli by isothermal calorimetric titration analysis
[Pyruvate dehydrogenase (acetyl-transferring)] kinase isozyme 3, mitochondrial, sequence (Q15120 whole entry, the tested form may be a part): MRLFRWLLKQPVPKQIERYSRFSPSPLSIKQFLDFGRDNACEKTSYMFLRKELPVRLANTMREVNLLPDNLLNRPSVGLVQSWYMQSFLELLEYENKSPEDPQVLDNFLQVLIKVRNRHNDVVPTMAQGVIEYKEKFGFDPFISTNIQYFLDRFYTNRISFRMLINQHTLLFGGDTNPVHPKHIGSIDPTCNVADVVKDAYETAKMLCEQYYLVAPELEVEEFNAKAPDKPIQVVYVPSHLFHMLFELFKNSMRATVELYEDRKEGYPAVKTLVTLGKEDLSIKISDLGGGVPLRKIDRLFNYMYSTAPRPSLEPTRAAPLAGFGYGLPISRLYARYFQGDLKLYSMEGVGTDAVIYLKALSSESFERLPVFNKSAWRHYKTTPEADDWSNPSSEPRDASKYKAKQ

[7] = biological target: [Pyruvate dehydrogenase (acetyl-transferring)] kinase isozyme 4, mitochondrial (Homo sapiens, UniProt Q16654); assay: Binding affinity to SUMO-fused/His-tagged PDK4 (unknown origin) expressed in Escherichia coli by isothermal calorimetric titration analysis
[Pyruvate dehydrogenase (acetyl-transferring)] kinase isozyme 4, mitochondrial, sequence (Q16654 whole entry, the tested form may be a part): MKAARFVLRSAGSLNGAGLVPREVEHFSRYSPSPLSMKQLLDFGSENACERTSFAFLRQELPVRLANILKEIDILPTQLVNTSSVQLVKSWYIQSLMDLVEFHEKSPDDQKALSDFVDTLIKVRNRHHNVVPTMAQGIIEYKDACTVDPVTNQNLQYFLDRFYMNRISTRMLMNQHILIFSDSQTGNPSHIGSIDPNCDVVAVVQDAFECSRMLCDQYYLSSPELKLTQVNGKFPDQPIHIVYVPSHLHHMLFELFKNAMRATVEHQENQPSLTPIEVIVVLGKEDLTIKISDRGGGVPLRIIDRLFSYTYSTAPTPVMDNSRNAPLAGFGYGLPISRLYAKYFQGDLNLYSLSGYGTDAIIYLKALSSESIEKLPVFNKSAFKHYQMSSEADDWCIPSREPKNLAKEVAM

[8] = biological target: T2, Pyruvate dehydrogenase kinase (Homo sapiens) (UniProt Q15119+Q15120+Q16654+Q15118); assay: Inhibition of PDK in human NCI-H1975 cells assessed as reduction in phosphorylated S293 PDC E1 level at 10 uM by ELISA; format: cell-based
[9] = biological target: T2, Pyruvate dehydrogenase kinase (Homo sapiens); assay: Inhibition of PDK in human NCI-H1975 cells assessed as reduction in phosphorylated S293 PDC E1 level by ELISA; format: cell-based
[10] = biological target: T2, Pyruvate dehydrogenase kinase (Homo sapiens); assay: Inhibition of PDK in human NCI-H1975 cells assessed as reduction in phosphorylated S293 PDC E1 level by Western blot analysis; format: cell-based
NCI-H1975 [11] = assay: Antiproliferative activity against human NCI-H1975 cells assessed as reduction in cell viability at 10 uM after 72 hrs by MTT assay; format: functional, cell-based
MRC5 = assay: Cytotoxicity against human MRC5 cells assessed as reduction in cell viability up to 40 uM after 72 hrs by MTT assay; format: cell-based; conditions: mrc5, 72 h
NCI-H1975 [12] = assay: Antiproliferative activity against human NCI-H1975 cells assessed as reduction in cell viability after 72 hrs by MTT assay; format: functional, cell-based; conditions: NCI-H1975, 72 h
NCI-H1650 = assay: Antiproliferative activity against human NCI-H1650 cells assessed as reduction in cell viability after 72 hrs by MTT assay; format: functional, cell-based; conditions: NCI-H1650, 72 h
[13] = biological target: T2, Pyruvate dehydrogenase kinase (Homo sapiens); assay: Inhibition of PDK in human NCI-H1975 cells assessed as switch of pyruvate metabolism from lactate production to oxidative phosphorylation by measuring increase in ROS production at 1 to 10 uM measured after 4 hrs by DCFH-DA dye based assay; format: cell-based
[14] = biological target: T2, Pyruvate dehydrogenase kinase (Homo sapiens); assay: Inhibition of PDK in human NCI-H1975 cells assessed as switch of pyruvate metabolism from lactate production to oxidative phosphorylation by measuring increase in oxygen consumption rate measured after 2 hrs; format: cell-based
[15] = biological target: T2, Pyruvate dehydrogenase kinase (Homo sapiens); assay: Inhibition of PDK in human NCI-H1975 cells assessed as switch of pyruvate metabolism from lactate production to oxidative phosphorylation by measuring decrease in lactate production at 1 to 10 uM measured after 4 hrs; format: cell-based
A549 = assay: cells; conditions: Homo sapiens, A549, 72 h
Description: Antiproliferative activity against human A549 cells assessed as reduction in cell viability after 72 hrs by MTT assay

NCI-H1975 [16] = assay: Antiproliferative activity against human NCI-H1975 cells assessed as reduction in cell viability at 20 mM after 72 hrs by MTT assay; format: functional, cell-based
[17] = biological target: T1, [Pyruvate dehydrogenase (acetyl-transferring)] kinase isozyme 1, mitochondrial; conditions: 10 mM
Description: Inhibition of PDK1 (unknown origin) at 10 mM using PDH E1 as substrate measured after 30 mins by kinase-glo assay relative to control

inhibition [1]	EC50 [2]	Ratio EC50 [3]	Kd [4]	Kd [5]	Kd [6]	Kd [7]	inhibition [8]	inhibition [9]	inhibition [10]	IC50 (NCI-H1975 [12])	inhibition [13]	inhibition [14]	inhibition [15]	IC50 (A549)	Structure (SMILES)	Activity (NCI-H1975 [11])	Activity (MRC5)	IC50 (NCI-H1650)	Activity (NCI-H1975 [16])	inhibition [17]
89.6%	1.99 µM	> 1000	5.8 µM	2.9 µM	7.8 µM	10.7 µM	Active								CCCCN(Cc1ccncc1)C(=O)c1cc(-c2ccccc2O)n[nH]1					
86.9%	4.64 µM	> 1000	10.5 µM	15.9 µM	8.9 µM		Active								CC(C)=CCN1CCN(Cc2c(C)n(C)n(-c3ccccc3)c2=O)C[C@@H]1CCO					

Second part, the compound before the results:

Structure (SMILES)	inhibition [1]	EC50 [2]	Ratio EC50 [3]	Kd [4]	Kd [5]	Kd [6]	Kd [7]	inhibition [8]	inhibition [9]	inhibition [10]	IC50 (NCI-H1975 [12])	inhibition [13]	inhibition [14]	inhibition [15]	IC50 (A549)	Activity (NCI-H1975 [11])	Activity (MRC5)	IC50 (NCI-H1650)	Activity (NCI-H1975 [16])	inhibition [17]
OCCn1nc(C2CCOCC2)nc1[C@@H]1CCCCN1Cc1ccccc1	93.7%	0.42 µM	> 1000	0.89 µM	3.7 µM	2.1 µM	7.9 µM	Active	Dose-dependent effect	Dose-dependent effect	3.32 µM	Active	Dose-dependent effect	Active	5.9 µM	Active	Non-Toxic	7.6 µM		
O=C(c1ccccc1)C(Cl)Cl															4.7 µM	Active		7.9 µM		
CN(Cc1cnc2ccccn12)C(=O)c1cc(COc2ccc3c(c2)OCO3)[nH]n1	95.6%	0.5 µM	> 1000	1.1 µM	2 µM	4.7 µM	2.6 µM	Active	Dose-dependent effect	Dose-dependent effect					17.8 µM	Active	Non-Toxic	15.7 µM		
O=C([O-])C(Cl)Cl.[Na+] [SODIUM DICHLOROACETATE]																		16300 µM	Active	64.2%
